According to patent US9255100B2 (BAYER INTELLECTUAL PROPERTY GMBH, priority 2010, dated 2016):

These compounds were tested against T1, N-terminally GST-tagged human full length recombinant Mps-1 kinase (Homo sapiens, UniProt P33981) (assay: Mps-1 kinase assay (TR-FRET)). Details: Mps1 IC50 [nM], 10 μM ATP, 1 μM peptide substrate, 60 min at 22° C.
T1 construct: N-terminally GST-tagged human full length recombinant Mps-1 kinase; purchased Invitrogen, Karslruhe, Germany PV4071
T1 sequence (P33981 1-857): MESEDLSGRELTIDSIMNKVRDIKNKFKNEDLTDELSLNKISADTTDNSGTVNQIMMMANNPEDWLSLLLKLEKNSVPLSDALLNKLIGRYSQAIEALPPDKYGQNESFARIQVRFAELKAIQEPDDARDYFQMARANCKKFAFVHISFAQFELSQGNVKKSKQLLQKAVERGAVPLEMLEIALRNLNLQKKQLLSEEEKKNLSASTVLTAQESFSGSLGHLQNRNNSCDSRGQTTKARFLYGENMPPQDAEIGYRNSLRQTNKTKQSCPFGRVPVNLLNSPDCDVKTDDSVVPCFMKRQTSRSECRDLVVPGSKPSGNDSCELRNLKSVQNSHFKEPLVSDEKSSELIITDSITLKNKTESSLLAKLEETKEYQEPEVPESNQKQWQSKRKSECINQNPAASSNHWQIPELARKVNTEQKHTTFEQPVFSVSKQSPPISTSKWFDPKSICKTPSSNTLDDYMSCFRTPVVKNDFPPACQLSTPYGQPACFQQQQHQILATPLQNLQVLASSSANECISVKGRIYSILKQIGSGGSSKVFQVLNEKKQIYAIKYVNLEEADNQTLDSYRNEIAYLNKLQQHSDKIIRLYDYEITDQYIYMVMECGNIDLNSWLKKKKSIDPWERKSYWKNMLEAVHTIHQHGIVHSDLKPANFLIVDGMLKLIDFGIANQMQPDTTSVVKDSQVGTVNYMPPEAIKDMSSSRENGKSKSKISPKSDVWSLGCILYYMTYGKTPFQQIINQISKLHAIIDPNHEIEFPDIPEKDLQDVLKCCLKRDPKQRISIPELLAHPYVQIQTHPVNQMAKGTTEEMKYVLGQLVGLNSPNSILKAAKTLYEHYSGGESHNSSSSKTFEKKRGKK
Format: biochemical
Procedure, shortened: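 Compounds were tested against recombinant full-length Mps-1 bearing an N-terminal GST tag, about 1 nM final, with a biotinylated amide-capped peptide as substrate. Detection reagents were then bound for 1 h at 22° C and the product read by TR-FRET.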

Row | SMILES | IC50 [nM]
1 | Cc1cc(-c2cnc3c(NCCC(F)(F)F)cc(Sc4cccc(F)c4)nn23)ccc1C(=O)NC1CC1 [Example 209, N-cyclopropyl-4-{6-[(3-fluorophenyl)sulfanyl]-8-[(3,3,3-trifluoropropyl)amino]imidazo[1,2-b]pyridazin-3-yl}-2-methylbenzamide] | 0.6
2 | CCN(CC)CCSc1cc(NCCC(F)(F)F)c2ncc(-c3ccc(C(=O)NC4CC4)c(C)c3)n2n1 [Example 210, N-cyclopropyl-4-(6-{[2-(diethylamino)ethyl]sulfanyl}-8-[(3,3,3-trifluoropropyl)amino]imidazo[1,2-b]pyridazin-3-yl)-2-methylbenzamide] | 6.9
3 | Cc1cc(-c2cnc3c(NCCCO)cc(-c4ccnn4C)nn23)ccc1C(=O)NC1CC1 [Example 211, N-cyclopropyl-4-{8-[(3-hydroxypropyl)amino]-6-(1-methyl-1H-pyrazol-5-yl)imidazo[1,2-b]pyridazin-3-yl}-2-methylbenzamide] | 5.8
4 | Cc1cc(-c2cnc3c(NCCC(F)(F)F)cc(S(=O)(=O)c4ccccc4)nn23)ccc1C(=O)NC1CC1 [Example 212, N-cyclopropyl-2-methyl-4-{6-(phenylsulfonyl)-8-[(3,3,3-trifluoropropyl)amino]imidazo[1,2-b]pyridazin-3-yl}benzamide] | < 1
5 | Cc1cc(-c2cnc3c(NCC(C)C)cc(-c4cncc(C#N)c4)nn23)ccc1C(=O)NC1CC1 [Example 213, 4-{6-(5-Cyanopyridin-3-yl)-8-(isobutylamino)imidazo[1,2-b]pyridazin-3-yl}-N-cyclopropyl-2-methylbenzamide] | < 1
6 | Cc1cc(-c2cnc3c(NCC(C)(C)O)cc(Sc4ccccc4)nn23)ccc1C(=O)NC1CC1 [Example 214, N-cyclopropyl-4-{8-[(2-hydroxy-2-methylpropyl)amino]-6-(phenylsulfanyl)imidazo[1,2-b]pyridazin-3-yl}-2-methylbenzamide] | < 1
7 | Cc1cc(-c2cnc3c(NCCC(F)(F)F)cc(SCCN4CCOCC4)nn23)ccc1C(=O)NC1CC1 [Example 215, N-cyclopropyl-2-methyl-4-(6-{[2-(morpholin-4-yl)ethyl]sulfanyl}-8-[(3,3,3-trifluoropropyl)amino]imidazo[1,2-b]pyridazin-3-yl)benzamide] | 1.7
8 | Cc1cc(-c2cnc3c(NCC(C)(C)O)cc(SCCC(C)(C)C)nn23)ccc1C(=O)NC1CC1 [Example 217, N-cyclopropyl-4-{6-[(3,3-dimethylbutyl)sulfanyl]-8-[(2-hydroxy-2-methylpropyl)amino]imidazo[1,2-b]pyridazin-3-yl}-2-methylbenzamide] | 3.6
9 | Cc1cc(-c2cnc3c(NCC(C)(C)O)cc(Sc4c(F)cccc4F)nn23)ccc1C(=O)NC1CC1 [Example 218, N-cyclopropyl-4-{6-[(2,6-difluorophenyl)sulfanyl]-8-[(2-hydroxy-2-methylpropyl)amino]imidazo[1,2-b]pyridazin-3-yl}-2-methylbenzamide] | 3.7
10 | C/C=C(\C)c1cc(NCCC(F)(F)F)c2ncc(-c3ccc(C(=O)NC4CC4)c(C)c3)n2n1 [Example 221, 4-{6-[(2E)-but-2-en-2-yl]-8-[(3,3,3-trifluoropropyl)amino]imidazo[1,2-b]pyridazin-3-yl}-N-cyclopropyl-2-methylbenzamide] | 1.2
11 | Cc1cc(-c2cnc3c(NCC(C)(C)O)cc(-c4ccccc4CF)nn23)ccc1C(=O)NC1CC1 [Example 222, N-cyclopropyl-4-{6-[2-(fluoromethyl)phenyl]-8-[(2-hydroxy-2-methylpropyl)amino]imidazo[1,2-b]pyridazin-3-yl}-2-methylbenzamide] | 2.1
12 | COc1ccccc1Oc1cc(NCCC(F)(F)F)c2ncc(-c3ccc(C(=O)NC4CC4)c(C)c3)n2n1 [Example 223, N-cyclopropyl-4-{6-(2-methoxyphenoxy)-8-[(3,3,3-trifluoropropyl)amino]imidazo[1,2-b]pyridazin-3-yl}-2-methylbenzamide] | 0.2
13 | Cc1cc(-c2cnc3c(NCCC(F)(F)F)cc(Sc4ccccc4O)nn23)ccc1C(=O)NC1CC1 [Example 224, N-cyclopropyl-4-{6-[(2-hydroxyphenyl)sulfanyl]-8-[(3,3,3-trifluoropropyl)amino]imidazo[1,2-b]pyridazin-3-yl}-2-methylbenzamide] | < 0.1
14 | COc1cccc(Oc2cc(NCCC(F)(F)F)c3ncc(-c4ccc(C(=O)NC5CC5)c(C)c4)n3n2)c1 [Example 225, N-cyclopropyl-4-{6-(3-methoxyphenoxy)-8-[(3,3,3-trifluoropropyl)amino]imidazo[1,2-b]pyridazin-3-yl}-2-methylbenzamide] | 0.2
15 | Cc1cc(-c2cnc3c(NCCC(F)(F)F)cc(SCCC(C)(C)C)nn23)ccc1C(=O)NC1CC1 [Example 226, N-cyclopropyl-4-{6-[(3,3-dimethylbutyl)sulfanyl]-8-[(3,3,3-trifluoropropyl)amino]imidazo[1,2-b]pyridazin-3-yl}-2-methylbenzamide] | 1.3
16 | COc1ccc(Sc2cc(NCCC(F)(F)F)c3ncc(-c4ccc(C(=O)NC5CC5)c(C)c4)n3n2)cc1 [Example 227, N-cyclopropyl-4-{6-[(4-methoxyphenyl)sulfanyl]-8-[(3,3,3-trifluoropropyl)amino]imidazo[1,2-b]pyridazin-3-yl}-2-methylbenzamide] | 0.2
17 | Cc1cc(-c2cnc3c(NCCC(F)(F)F)cc(-c4ccncc4)nn23)ccc1C(=O)NC1CC1 [Example 228, N-cyclopropyl-2-methyl-4-{6-(pyridin-4-yl)-8-[(3,3,3-trifluoropropyl)amino]imidazo[1,2-b]pyridazin-3-yl}benzamide] | 0.6
18 | Cc1cc(-c2cnc3c(NCC(C)(C)O)cc(-c4ccncc4)nn23)ccc1C(=O)NC1CC1 [Example 230, N-cyclopropyl-4-{8-[(2-hydroxy-2-methylpropyl)amino]-6-(pyridin-4-yl)imidazo[1,2-b]pyridazin-3-yl}-2-methylbenzamide] | 2.7
19 | CSc1cc(NCCS(=O)(=O)N2CCOCC2)c2ncc(-c3ccc(C(=O)NC4CC4)c(C)c3)n2n1 [Example 231, N-cyclopropyl-2-methyl-4-[6-(methylsulfanyl)-8-{[2-(morpholin-4-ylsulfonyl)ethyl]amino}imidazo[1,2-b]pyridazin-3-yl]benzamide] | 14.3
20 | Cc1cc(-c2cnc3c(NCC(C)(C)O)cc(-c4ccc(F)cc4C)nn23)ccc1C(=O)NC1CC1 [Example 232, N-cyclopropyl-4-{6-(4-fluoro-2-methylphenyl)-8-[(2-hydroxy-2-methylpropyl)amino]imidazo[1,2-b]pyridazin-3-yl}-2-methylbenzamide] | 1
21 | Cc1cc(-c2cnc3c(NCC(C)(C)O)cc(-c4ccccc4F)nn23)ccc1C(=O)NC1CC1 [Example 233, N-cyclopropyl-4-{6-(2-fluorophenyl)-8-[(2-hydroxy-2-methylpropyl)amino]imidazo[1,2-b]pyridazin-3-yl}-2-methylbenzamide] | 1.7
22 | Cc1cc(-c2cnc3c(NCC(C)(C)O)cc(-c4cncc(C#N)c4)nn23)ccc1C(=O)NC1CC1 [Example 234, 4-{6-(5-cyanopyridin-3-yl)-8-[(2-hydroxy-2-methylpropyl)amino]imidazo[1,2-b]pyridazin-3-yl}-N-cyclopropyl-2-methylbenzamide] | 6.1
23 | Cc1cc(-c2cnc3c(NCC(C)(C)O)cc(-c4cc(C(F)(F)F)nn4C)nn23)ccc1C(=O)NC1CC1 [Example 235, N-cyclopropyl-4-{8-[(2-hydroxy-2-methylpropyl)amino]-6-[1-methyl-3-(trifluoromethyl)-1H-pyrazol-5-yl]imidazo[1,2-b]pyridazin-3-yl}-2-methylbenzamide] | 6.2
24 | CSc1cc(NCc2ccnn2C)c2ncc(-c3ccc(C(=O)NC4CC4)c(C)c3)n2n1 [Example 237, N-cyclopropyl-2-methyl-4-[8-{[(1-methyl-1H-pyrazol-5-yl)methyl]amino}-6-(methylsulfanyl)imidazo[1,2-b]pyridazin-3-yl]benzamide] | 5.6
25 | Cc1cc(-c2cnc3c(NCCC(F)(F)F)cc(Sc4cccc(O)c4)nn23)ccc1C(=O)NC1CC1 [Example 238, N-cyclopropyl-4-{6-[(3-hydroxyphenyl)sulfanyl]-8-[(3,3,3-trifluoropropyl)amino]imidazo[1,2-b]pyridazin-3-yl}-2-methylbenzamide] | < 0.1
26 | Cc1cc(-c2cnc3c(NCC(C)(C)O)cc(SCCN4CCOCC4)nn23)ccc1C(=O)NC1CC1 [Example 239, N-cyclopropyl-4-(8-[(2-hydroxy-2-methylpropyl)amino]-6-{[2-(morpholin-4-yl)ethyl]sulfanyl}imidazo[1,2-b]pyridazin-3-yl)-2-methylbenzamide] | 25.5
